Marks after values point to notes of the source that are not given here.
System: SK-MM-2 cells
Assay: SK-MM-2 multiple myeloma cell growth over 20 days continuous treatment
Format: cell-based
Conditions: BI1347 200 nM, Senexin C 1 μM, IA7886 200 nM, IA7843 1 μM
Description: The following CDK8/19 kinase inhibitors were tested for their effects on MM cell lines over 20 days continuous treatment: CDK8/19 kinase inhibitors BI1347 (200 nM) and Senexin C (1 μM), BI1347-derived PROTAC IA7886 (200 nM) and Senexin C-derived PROTAC IA7843 (1 μM). 1-4 million cells were treated with vehicle control (0.1% DMSO), or CDK8/19 kinase inhibitors or PROTACs for 20 days. Every 4 days, cells were counted using BioRAD TC20 Automated Cell Counter with trypan blue staining, and the same number of cells were passaged to a new T25 flask to propagate under the same treatment conditions.

For `CN1CCN(C(=O)c2ccc3cc(CCNc4ccnc5ccc(C#N)cc45)ccc3c2)CC1` [Senexin C, reference compound], the “growth inhibition over 20 days, order of efficacy” value was “BI1347<IA7886<Senexin C<IA7843”.

Target: CDK8 (Homo sapiens, UniProt P49336)
Assay: CDK8 degradation in HEK-293 cells (Western blot, normalized by GAPDH)
Format: cell-based
Parameters: endogenous in cells; host or cells: HEK-293
Conditions: HEK-293; HP8580 200 nM and 1 μM, pomalidomide 5 μM, Senexin C 5 μM
Description: Table 1 presents the structures of 35 different chimeras that have been synthesized, together with their effects (at 1 μM or 0.3 μM concentrations) on CDK8 degradation in HEK-293 cells. The synthesis schemes of all the compounds are described below. CDK8 degradation was measured by Western blot analysis of RIPA lysates of HEK-293cells treated with or without the test compound for 24 hours, using antibodies against CDK8 (Santa Cruz sc-1521) and housekeeping protein GAPDH (Santa Cruz sc-32233) (loading control) Protein bands on immunoblotted PVDF membranes were visualized with Western Lighting Plus ECL detection reagent (Perkin Elmer, Waltham, MA, USA) using ChemiDoc Touch™ (Bio-Rad). Image processing and densitometry analysis were performed using ImageLab software (Bio-Rad) to quantify the CDK8 protein levels (normalized by GAPDH) and evaluate the effects of compound treatment.
FIGS. 2F and 2G show the effects of different concentrations of potent Senexin C- and BI-1347-based PROTACs on CDK8 and CDK19 degradation in HEK-293cells. Based on these assays, we calculated DC50 values that correspond to PROTAC concentrations inducing degradation of CDK8 and CDK19 to the half of protein level in untreated cells. The corresponding CDK8 DC50 values were 46 nM for IA7843, 6.6 nM for IA7882 and 2.8 nM for IA7886, and CDK19 DC50 values were 1 μM for IA7843, 25 nM for IA7882 and 10 nM for IA7886.

Sequence of CDK8 (P49336 whole entry): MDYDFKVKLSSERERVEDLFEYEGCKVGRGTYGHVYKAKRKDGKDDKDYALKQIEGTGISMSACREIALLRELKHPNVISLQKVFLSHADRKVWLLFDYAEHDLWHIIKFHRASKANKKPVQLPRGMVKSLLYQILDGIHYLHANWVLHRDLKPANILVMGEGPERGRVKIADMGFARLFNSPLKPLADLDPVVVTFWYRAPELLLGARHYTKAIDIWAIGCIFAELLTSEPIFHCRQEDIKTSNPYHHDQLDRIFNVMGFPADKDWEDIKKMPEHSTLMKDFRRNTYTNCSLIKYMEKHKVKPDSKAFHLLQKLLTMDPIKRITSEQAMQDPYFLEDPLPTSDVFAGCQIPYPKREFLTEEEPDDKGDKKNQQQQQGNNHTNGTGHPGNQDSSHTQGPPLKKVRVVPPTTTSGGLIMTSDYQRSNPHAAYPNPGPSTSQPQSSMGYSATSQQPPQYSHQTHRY
Sequence of CDK8 (P24863 whole entry partner): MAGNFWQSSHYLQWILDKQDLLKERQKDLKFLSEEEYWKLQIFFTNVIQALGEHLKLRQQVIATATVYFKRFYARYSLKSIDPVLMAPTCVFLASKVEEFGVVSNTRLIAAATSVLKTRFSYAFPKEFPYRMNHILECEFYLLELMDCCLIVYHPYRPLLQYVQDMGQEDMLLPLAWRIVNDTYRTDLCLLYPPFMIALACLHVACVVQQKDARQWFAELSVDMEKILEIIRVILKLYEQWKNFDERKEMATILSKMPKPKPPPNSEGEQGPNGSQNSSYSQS

In the case of `CN1CCN(C(=O)c2ccc3cc(CCNc4ccnc5ccc(C#N)cc45)ccc3c2)CC1` [Senexin C, reference compound], the “induction of CDK8 degradation by single agents” value is reported as “but not pomalidomide or Senexin C induced CDK8 degradation”.
In the case of `Nc1cccc2c1C(=O)N(C1CCC(=O)NC1=O)C2=O` (stereo not shown) [pomalidomide, reference compound], the “induction of CDK8 degradation by single agents” value is reported as “but not pomalidomide or Senexin C induced CDK8 degradation”.

Same assay, conditions: HEK-293 cells, 24 hours, tested at 0.3 μM (marked *)

Compared with `CC(C)(C)C(=O)OCN1C(=O)CCC(N2C(=O)c3cccc(NCCCC(=O)NCCCCCCCCCCC(=O)N4CCN(C(=O)Cn5cc(-c6ccc(-c7cncc8ccccc78)cc6)cn5)CC4)c3C2=O)C1=O` (stereo not shown) [IA7893, (3-(4-((4-((11-(4-(2-(4-(4-(isoquinolin-4-yl)phenyl)-1H-pyrazol-1-yl)acetyl)piperazin-1-yl)-11-oxoundecyl)amino)-4-oxobutyl)amino)-1,3-dioxoisoindolin-2-yl)-2,6-dioxopiperidin-1-yl)methyl pivalate], `O=C1CCC(N2C(=O)c3cccc(NCCCCC(=O)N4CCN(C(=O)Cn5cc(-c6ccc(-c7cncc8ccccc78)cc6)cn5)CC4)c3C2=O)C(=O)N1` (stereo not shown) [IA7895, 2-(2,6-dioxopiperidin-3-yl)-4-((5-(4-(2-(4-(4-(isoquinolin-4-yl)phenyl)-1H-pyrazol-1-yl)acetyl)piperazin-1-yl)-5-oxopentyl)amino) isoindoline-1,3-dione] is higher in “% CDK8 remaining” value: 9%* for the first, 70%* for the second.

In the case of `O=C1CCC(N2C(=O)c3cccc(NCCOCCOCCOCCC(=O)N4CCN(C(=O)Cn5cc(-c6ccc(-c7cncc8ccccc78)cc6)cn5)CC4)c3C2=O)C(=O)N1` (stereo not shown) [IA7894, 2-(2,6-dioxopiperidin-3-yl)-4-((2-(2-(2-(3-(4-(2-(4-(4-(isoquinolin-4-yl)phenyl)-1H-pyrazol-1-yl)acetyl)piperazin-1-yl)-3-oxopropoxy)ethoxy)ethoxy)ethyl)amino) isoindoline-1,3-dione], the “% CDK8 remaining” value is reported as 51%*.

Same assay, conditions: HEK-293 cells, 24 hours, tested at 1 μM

Compared with `N#Cc1ccc2nccc(NCCc3ccc4cc(C(=O)N5CCN(C(=O)CCCCCCCCNC(=O)CCOCCNc6cccc7c6C(=O)N(C6CCC(=O)NC6=O)C7=O)CC5)ccc4c3)c2c1` (stereo not shown) [IA7835, N-[9-[4-[6-[2-[(6-cyano-4-quinolyl)amino]ethyl]naphthalene-2-carbonyl]piperazin-1-yl]-9-oxo-nonyl]-3-[2-[[2-(2,6-dioxo-3-piperidyl)-1,3-dioxo-isoindolin-4-yl]amino]ethoxy]propanamide], `N#Cc1ccc2nccc(NCCc3ccc4cc(C(=O)N5CCN(C(=O)CCCCCCCCNC(=O)CCCCNc6cccc7c6C(=O)N(C6CCC(=O)NC6=O)C7=O)CC5)ccc4c3)c2c1` (stereo not shown) [IA7858, N-[9-[4-[6-[2-[(6-cyano-4-quinolyl)amino]ethyl]naphthalene-2-carbonyl]piperazin-1-yl]-9-oxo-nonyl]-5-[[2-(2,6-dioxo-3-piperidyl)-1,3-dioxo-isoindolin-4-yl]amino]pentanamide] is lower in “% CDK8 remaining” value: 45% for the first, 21% for the second.

Compared with `N#Cc1ccc2nccc(NCCc3ccc4cc(C(=O)N5CCN(C(=O)CCCCCCCCC(=O)NCCCCCNc6cccc7c6C(=O)N(C6CCC(=O)NC6=O)C7=O)CC5)ccc4c3)c2c1` (stereo not shown) [IA7840, 10-[4-[6-[2-[(6-cyano-4-quinolyl)amino]ethyl]naphthalene-2-carbonyl]piperazin-1-yl]-N-[5-[[2-(2,6-dioxo-3-piperidyl)-1,3-dioxo-isoindolin-4-yl]amino]pentyl]-10-oxo-decanamide], `N#Cc1ccc2nccc(NCCc3ccc4cc(C(=O)N5CCN(C(=O)CCCCCCCCNC(=O)CCCCCNc6cccc7c6C(=O)N(C6CCC(=O)NC6=O)C7=O)CC5)ccc4c3)c2c1` (stereo not shown) [IA7860, N-[9-[4-[6-[2-[(6-cyano-4-quinolyl)amino]ethyl]naphthalene-2-carbonyl]piperazin-1-yl]-9-oxo-nonyl]-6-[[2-(2,6-dioxo-3-piperidyl)-1,3-dioxo-isoindolin-4-yl]amino]hexanamide] is higher in “% CDK8 remaining” value: 55% for the first, 95% for the second.

Going from `N#Cc1ccc2nccc(NCCc3ccc4cc(C(=O)N5CCN(C(=O)CCCCCCCCCCCNC(=O)CCNc6cccc7c6C(=O)N(C6CCC(=O)NC6=O)C7=O)CC5)ccc4c3)c2c1` (stereo not shown) [IA7848, N-[12-[4-[6-[2-[(6-cyano-4-quinolyl)amino]ethyl]naphthalene-2-carbonyl]piperazin-1-yl]-12-oxo-dodecyl]-3-[[2-(2,6-dioxo-3-piperidyl)-1,3-dioxo-isoindolin-4-yl]amino]propanamide] to `N#Cc1ccc2nccc(NCCc3ccc4cc(C(=O)N5CCN(C(=O)CCCCCCCCCNC(=O)CCCCNc6cccc7c6C(=O)N(C6CCC(=O)NC6=O)C7=O)CC5)ccc4c3)c2c1` (stereo not shown) [IA7861, N-[10-[4-[6-[2-[(6-cyano-4-quinolyl)amino]ethyl]naphthalene-2-carbonyl]piperazin-1-yl]-10-oxo-decyl]-5-[[2-(2,6-dioxo-3-piperidyl)-1,3-dioxo-isoindolin-4-yl]amino]pentanamide], the “% CDK8 remaining” value falls from 31% to 19%.

First: N#Cc1ccc2nccc(NCCc3ccc4cc(C(=O)N5CCN(C(=O)CCCCCCCCCNC(=O)CCCCCNc6cccc7c6C(=O)N(C6CCC(=O)NC6=O)C7=O)CC5)ccc4c3)c2c1 (stereo not shown) [IA7859, N-[10-[4-[6-[2-[(6-cyano-4-quinolyl)amino]ethyl]naphthalene-2-carbonyl]piperazin-1-yl]-10-oxo-decyl]-6-[[2-(2,6-dioxo-3-piperidyl)-1,3-dioxo-isoindolin-4-yl]amino]hexanamide]
Second: N#Cc1ccc2nccc(NCCc3ccc4cc(C(=O)N5CCN(C(=O)CCCCCCCCCCNC(=O)CCCNc6ccc7c(c6)C(=O)N(C6CCC(=O)NC6=O)C7=O)CC5)ccc4c3)c2c1 (stereo not shown) [IA7868, N-[11-[4-[6-[2-[(6-cyano-4-quinolyl)amino]ethyl]naphthalene-2-carbonyl]piperazin-1-yl]-11-oxo-undecyl]-4-[[2-(2,6-dioxo-3-piperidyl)-1,3-dioxo-isoindolin-5-yl]amino]butanamide]
The “% CDK8 remaining” value of the first is higher: 81% for the first, 39% for the second.

First: N#Cc1ccc2nccc(NCCc3ccc4cc(C(=O)N5CCN(C(=O)CCCCCCCCCCNC(=O)CCCNc6cccc7c6CN(C6CCC(=O)NC6=O)C7=O)CC5)ccc4c3)c2c1 (stereo not shown) [IA7869, N-[11-[4-[6-[2-[(6-cyano-4-quinolyl)amino]ethyl]naphthalene-2-carbonyl]piperazin-1-yl]-11-oxo-undecyl]-4-[[2-(2,6-dioxo-3-piperidyl)-1-oxo-isoindolin-4-yl]amino]butanamide]
Second: N#Cc1ccc2nccc(NCCc3ccc4cc(C(=O)N5CCN(C(=O)CCCCCCCCCNC(=O)COc6ccc7c(c6)CCCN7C(=O)CCl)CC5)ccc4c3)c2c1 [IA7875, 2-[[1-(2-chloroacetyl)-3,4-dihydro-2H-quinolin-6-yl]oxy]-N-[10-[4-[6-[2-[(6-cyano-4-quinolyl)amino]ethyl]naphthalene-2-carbonyl]piperazin-1-yl]-10-oxo-decyl]acetamide]
The “% CDK8 remaining” value of the first is lower: 43% for the first, 100% for the second.

Compared with `O=C(Cn1cc(-c2ccc(-c3cncc4ccccc34)cc2)cn1)NCCOCCOCCOCCOCCNc1cccc2c1C(=O)N(C1CCC(=O)NC1=O)C2=O` (stereo not shown) [IA7891, N-[2-[2-[2-[2-[2-[[2-(2,6-dioxo-3-piperidyl)-1,3-dioxo-isoindolin-4-yl]amino]ethoxy]ethoxy]ethoxy]ethoxy]ethyl]-2-[4-[4-(4-isoquinolyl)phenyl]pyrazol-1-yl]acetamide], `NC(=O)c1sc2nccc(N3CCCN(c4ccc(C(=O)N5CCN(C(=O)CCOCCOCCOCCOCCNc6cccc7c6C(=O)N(C6CCC(=O)NC6=O)C7=O)CC5)cc4)CC3)c2c1N` (stereo not shown) [IA7892, 3-amino-4-[4-[4-[4-[3-[2-[2-[2-[2-[[2-(2,6-dioxo-3-piperidyl)-1,3-dioxo-isoindolin-4-yl]amino]ethoxy]ethoxy]ethoxy]ethoxy]propanoyl]piperazine-1-carbonyl]phenyl]-1,4-diazepan-1-yl]thieno[2,3-b]pyridine-2-carboxamide] is lower in “% CDK8 remaining” value: 100% for the first, 41% for the second.

Same assay, conditions: HEK-293 cells, Western blot

With `CC(C)(C)C(=O)OCN1C(=O)CCC(N2C(=O)c3cccc(NCCCC(=O)NCCCCCCCCCCC(=O)N4CCN(C(=O)Cn5cc(-c6ccc(-c7cncc8ccccc78)cc6)cn5)CC4)c3C2=O)C1=O` (stereo not shown) [IA7893, (3-(4-((4-((11-(4-(2-(4-(4-(isoquinolin-4-yl)phenyl)-1H-pyrazol-1-yl)acetyl)piperazin-1-yl)-11-oxoundecyl)amino)-4-oxobutyl)amino)-1,3-dioxoisoindolin-2-yl)-2,6-dioxopiperidin-1-yl)methyl pivalate] the “CDK8 degradation (in words)” value was “highly potent degrader”.

From patent US20250127906A1, “SMALL-MOLECULE DEGRADERS OF CDK8 AND CDK19” (University of South Carolina, priority 2021, published 2025)
